Experimental data from patent US10556907B2 (AbbVie Inc., priority 2015, dated 2020).
Structures can show the parent of a compound that is named as a salt.

Tests used:
Assay in all cases: Method 1: intracellular Ca2+ release (FLIPR, Calcium 5) in recombinant CHO-K1 cells
Type in all cases: cell-based
[1] = target: T1, human S1PR1 receptor (Homo sapiens, UniProt P21453); conditions: (1): determined with method 1; read-out: S1P1 EC50
T1 construct: host or cells: CHO-K1
Summary of the method: (§1)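 For antagonist mode, compounds were pre-incubated 10 min before phospho-fingolimod at EC80; in agonist mode, compounds were added directly to Calcium 5-loaded CHO-K1 cells co-expressing Gq/i5. Fluorescence was measured on FLIPR, and EC50 was fitted relative to the phospho-fingolimod curve.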

[2] = target: T2, human S1PR5 receptor (Homo sapiens, UniProt Q9H228); conditions: agonist potency, determined with method 1 (symbols A-D); read-out: S1P5 EC50 range
T2 construct: host or cells: CHO-K1
Summary of the method: as §1

[3] = target: T3, human S1PR4 receptor (Homo sapiens, UniProt O95977); conditions: (1): determined with method 1; read-out: S1P4 EC50
T3 construct: host or cells: CHO-K1
T3 sequence (O95977 1-384): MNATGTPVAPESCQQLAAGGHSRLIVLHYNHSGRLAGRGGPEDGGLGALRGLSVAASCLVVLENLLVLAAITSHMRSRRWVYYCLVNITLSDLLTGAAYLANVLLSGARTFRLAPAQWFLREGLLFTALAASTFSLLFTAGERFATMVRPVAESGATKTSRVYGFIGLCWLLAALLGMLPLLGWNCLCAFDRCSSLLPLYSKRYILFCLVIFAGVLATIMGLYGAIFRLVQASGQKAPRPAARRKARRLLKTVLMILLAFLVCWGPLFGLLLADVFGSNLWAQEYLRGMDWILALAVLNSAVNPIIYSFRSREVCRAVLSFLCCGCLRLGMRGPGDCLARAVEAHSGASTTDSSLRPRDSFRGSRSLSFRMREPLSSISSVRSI
Summary of the method: as §1

[4] = target: T4, human S1PR3 receptor (Homo sapiens, UniProt Q99500); conditions: (1): determined with method 1; read-out: S1P3 EC50
T4 construct: host or cells: CHO-K1
Summary of the method: as §1

T2 sequence (Q9H228 whole entry): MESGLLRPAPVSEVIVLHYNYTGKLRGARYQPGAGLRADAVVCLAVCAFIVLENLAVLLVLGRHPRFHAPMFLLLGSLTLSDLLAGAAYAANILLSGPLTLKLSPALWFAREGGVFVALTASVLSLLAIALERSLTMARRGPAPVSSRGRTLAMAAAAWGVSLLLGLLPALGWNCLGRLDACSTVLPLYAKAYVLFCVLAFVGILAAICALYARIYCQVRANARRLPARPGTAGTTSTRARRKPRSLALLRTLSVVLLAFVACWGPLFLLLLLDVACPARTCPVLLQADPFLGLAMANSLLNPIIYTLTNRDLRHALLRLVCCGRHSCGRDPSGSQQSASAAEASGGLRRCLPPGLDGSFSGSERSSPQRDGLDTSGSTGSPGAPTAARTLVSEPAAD
T4 sequence (Q99500 whole entry): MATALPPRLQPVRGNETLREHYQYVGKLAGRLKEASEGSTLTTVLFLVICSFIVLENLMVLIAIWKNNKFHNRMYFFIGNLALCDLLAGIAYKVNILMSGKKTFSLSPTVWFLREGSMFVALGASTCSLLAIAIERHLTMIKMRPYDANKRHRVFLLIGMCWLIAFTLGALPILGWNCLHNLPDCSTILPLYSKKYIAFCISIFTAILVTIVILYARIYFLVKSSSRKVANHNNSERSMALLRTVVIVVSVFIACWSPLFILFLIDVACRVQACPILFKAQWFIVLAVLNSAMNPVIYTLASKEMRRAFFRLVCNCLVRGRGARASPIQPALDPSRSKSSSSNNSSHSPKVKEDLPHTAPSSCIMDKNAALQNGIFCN
T1 sequence (P21453 whole entry): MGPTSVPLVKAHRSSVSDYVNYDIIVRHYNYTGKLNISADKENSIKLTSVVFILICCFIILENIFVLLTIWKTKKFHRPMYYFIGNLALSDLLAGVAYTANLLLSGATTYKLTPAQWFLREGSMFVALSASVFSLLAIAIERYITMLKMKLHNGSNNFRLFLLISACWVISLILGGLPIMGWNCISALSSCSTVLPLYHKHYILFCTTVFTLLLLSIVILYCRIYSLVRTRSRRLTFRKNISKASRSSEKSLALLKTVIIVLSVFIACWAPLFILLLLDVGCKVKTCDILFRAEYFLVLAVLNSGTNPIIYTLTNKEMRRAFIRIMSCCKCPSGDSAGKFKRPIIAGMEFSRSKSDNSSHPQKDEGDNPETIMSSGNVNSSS

CC(CC(=O)O)CN1CCc2nc(-c3ccc(OCc4ccc(F)cc4)cc3)ncc2C1 (stereo not drawn) [Compound 225, 4-(2-(4-((4-fluorobenzyl)oxy)phenyl)-7,8-dihydropyrido[4,3-d]pyrimidin-6(5H)-yl)-3-methylbutanoic acid]
EC50 [1]: > 1000 nM | EC50 [2]: < 10 nM | EC50 [3]: > 1000 nM | EC50 [4]: > 1000 nM

CC(CC(=O)O)CN1CCc2nc(-c3ccc(OCc4ccc(C(F)(F)F)cc4)cc3F)ncc2C1 (stereo not drawn) [Compound 263, 4-[2-[2-fluoro-4-[[4-(trifluoromethyl)phenyl]methoxy]phenyl]-7,8-dihydro-5H-pyrido[4,3-d]pyrimidin-6-yl]-3-methyl-butanoic acid 2,2,2-trifluoroacetic acid salt]
EC50 [1]: > 1000 nM | EC50 [2]: 10 to 100 nM | EC50 [3]: > 1000 nM | EC50 [4]: > 1000 nM

O=C(O)CCN1CCc2nc(-c3ccc(OCc4ccccc4)cc3)c(F)cc2C1 [Compound 186, 3-(2-(4-(benzyloxy)phenyl)-3-fluoro-7,8-dihydro-1,6-naphthyridin-6(5H)-yl)propanoic acid]
EC50 [1]: > 1000 nM | EC50 [2]: < 10 nM | EC50 [3]: > 1000 nM | EC50 [4]: > 1000 nM

CC(CC(=O)O)CN1CCc2nc(-c3ccc(OCc4cccc(F)c4F)cc3)ncc2C1 (stereo not drawn) [Compound 226, 4-[2-[4-[(2,3-difluorophenyl)methoxy]phenyl]-7,8-dihydro-5H-pyrido[4,3-d]pyrimidin-6-yl]-3-methyl-butanoic acid 2,2,2-trifluoroacetic acid salt]
EC50 [1]: < 1000 nM | EC50 [2]: < 10 nM | EC50 [3]: > 1000 nM | EC50 [4]: > 1000 nM

CC(CC(=O)O)CN1CCc2nc(-c3ccc(CCc4ccc(Cl)cc4)cc3)ncc2C1 (stereo not drawn) [Compound 244, 4-(2-(4-(4-chlorophenethyl)phenyl)-7,8-dihydropyrido[4,3-d]pyrimidin-6(5H)-yl)-3-methylbutanoic acid]
EC50 [1]: > 1000 nM | EC50 [2]: < 10 nM | EC50 [3]: > 1000 nM | EC50 [4]: > 1000 nM

O=C(O)CCN1CCc2nc(-c3ccc(OCc4ccccc4OC(F)(F)F)cc3)ccc2C1 [Compound 155, 3-(2-(4-((2-trifluoromethoxybenzyl)oxy)phenyl)-7,8-dihydro-1,6-naphthyridin-6(5H)-yl)propanoic acid]
EC50 [1]: > 1000 nM | EC50 [2]: < 10 nM | EC50 [3]: > 1000 nM | EC50 [4]: > 1000 nM

CC(C)(CC(=O)O)CN1CCc2nc(-c3ccc(OCc4ccc(Cl)cc4)cc3)ncc2C1 [Compound 210, 4-(2-(4-((4-chlorobenzyl)oxy)phenyl)-7,8-dihydropyrido[4,3-d]pyrimidin-6(5H)-yl)-3,3-dimethylbutanoic acid]
EC50 [1]: > 1000 nM | EC50 [2]: 1000 to 10000 nM | EC50 [3]: > 1000 nM | EC50 [4]: > 1000 nM

O=C(O)CCN1CCc2cc(-c3ccc(OCc4ccc(Cl)cc4)cc3)ncc2C1 [Compound 174, 3-(6-((4(4-chlorobenzyl)oxy)phenyl)-3,4-dihydro-2,7-naphthyridin-2(1H)-yl)propanoic acid]
EC50 [1]: > 1000 nM | EC50 [2]: < 10 nM | EC50 [3]: > 1000 nM | EC50 [4]: > 1000 nM

CC(CC(=O)O)CN1CCc2nc(-c3ccc(C(F)(F)Cc4ccc(Cl)cc4)cc3)ncc2C1 (stereo not drawn) [Compound 265, 4-(2-(4-(2-(4-chlorophenyl)-1,1-difluoroethyl)phenyl)-7,8-dihydropyrido[4,3-d]pyrimidin-6(5H)-yl)-3-methylbutanoic acid]
EC50 [1]: > 1000 nM | EC50 [2]: 10 to 100 nM | EC50 [3]: > 1000 nM | EC50 [4]: > 1000 nM

O=C(O)C1CC(N2CCc3nc(C#Cc4cccc(Cl)c4)ncc3C2)C1 (stereo not drawn) [Compound 62, 3-(2-((3-chlorophenyl)ethynyl)-7,8-dihydropyrido[4,3-d]pyrimidin-6(5H)-yl)cyclobutanecarboxylic acid]
EC50 [1]: > 1000 nM | EC50 [2]: 1000 to 10000 nM | EC50 [3]: > 1000 nM | EC50 [4]: > 1000 nM

O=C(O)CCN1CCc2nc(-c3ccc(OCc4cccc(OC(F)(F)F)c4)cc3)ncc2C1 [Compound 82, 3-(2-(4-((3-(trifluoromethoxy)benzyl)oxy)phenyl)-7,8-dihydropyrido[4,3-d]pyrimidin-6(5H)-yl)propanoic acid]
EC50 [1]: > 1000 nM | EC50 [2]: < 10 nM | EC50 [3]: > 1000 nM | EC50 [4]: > 1000 nM

CC(CC(=O)O)N1CCc2nc(-c3ccc(OCc4ccc(Cl)c(Cl)c4)cc3)ncc2C1 (stereo not drawn) [Compound 45, 3-(2-(4-((3,4-dichlorobenzyl)oxy)phenyl)-7,8-dihydropyrido[4,3-d]pyrimidin-6(5H)-yl)butanoic acid]
EC50 [1]: > 1000 nM | EC50 [2]: 10 to 100 nM | EC50 [3]: > 1000 nM | EC50 [4]: > 1000 nM
